Data on two molecules can be found in PMC3158675, “Effective inhibitors of the essential kinase PknB and their potential as anti-mycobacterial agents” (Tuberculosis (Edinburgh, Scotland), 2011).

The test system of this assay is M. tuberculosis ompA mutant. The assay is classed as cell-based.

SMILES strings stand for the structures.

As for `CC[C@H]1OC(=O)[C@H](C)[C@@H](O[C@H]2C[C@@](C)(OC)[C@@H](O)[C@H](C)O2)[C@H](C)[C@@H](O[C@@H]2O[C@H](C)C[C@H](N(C)C)[C@H]2O)[C@](C)(O)C[C@@H](C)C(=O)[C@H](C)[C@@H](O)[C@]1(C)O` [erythromycin], the “Sensitivity of M. tuberculosis ompA mutant compared to wild type” value is on record as “slightly increased resistance”.
As for `CN[C@H](CC(C)C)C(=O)N[C@H]1C(=O)N[C@@H](CC(N)=O)C(=O)N[C@H]2C(=O)N[C@H]3C(=O)N[C@H](C(=O)N[C@H](C(=O)O)c4cc(O)cc(O)c4-c4cc3ccc4O)[C@H](O)c3ccc(c(Cl)c3)Oc3cc2cc(c3O[C@@H]2O[C@H](CO)[C@@H](O)[C@H](O)[C@H]2O[C@H]2C[C@](C)(N)[C@H](O)[C@H](C)O2)Oc2ccc(cc2Cl)[C@H]1O` [vancomycin], the “Sensitivity of M. tuberculosis ompA mutant compared to wild type” value is “slightly increased resistance”.
